Measured values as given in US10738062B2, “Chromane-substituted tetracyclic compounds and uses thereof for the treatment of viral diseases” (Merck Sharp & Dohme Corp., priority 2016, dated 2020).
Like-named read-outs stand apart in the source and are kept apart here.

Tests used:
Parameters in all cases: species or system Hepatitis C virus
HCV replicon 1A = assay: Cell-based HCV replicon assay (Replicon Assay A), replicon 1A; conditions: replicon RNA by real time PCR, day 3
Experimental: (§1) To measure cell-based anti-HCV activity of compounds of the present invention, two complimentary assays were employed using various replicons. In the first assay (“Replicon Assay A”), replicon cells were seeded at 2000 cells/well in 384-well 384-well flat bottom tissue culture treated clear bottom plate (Corning 3707) in the presence of the test compound. Various concentrations of test compound, typically in 10 serial dilutions, were added to the assay mixture, with the starting concentration ranging from 333.3 nM to 1.667 nM. The final concentration of DMSO was 0.5%. Fetal bovine serum was 5%, in the assay media. Cells were harvested on day 3 by removing media and washing the cells with a suitable wash buffer. The cells were lysed with the addition of 1× Qiagen lysis buffer (Cat #1062731). The replicon RNA level was measured using real time PCR (TaqMan® EZ RT-PCR, Applied Biosystems 403028) with the following primers and probes: […]
(§2) Cyclophilin RNA was used as endogenous control and was amplified in the same reaction as NS5B (multiplex PCR). The real-time RT-PCR reactions were run on ABI PRISM 7900HT Sequence Detection System using the following program: 50° C. for 2 minutes, 60° C. for 30 minutes, 95° C. for 5 minutes, 40 cycles of 94° C. for 20 sec, 55° C. for 1 minutes.
(§3) The amount of HCV replicon RNA per cell was quantified using a linear regression curve for a known nanogram (ng) amount of HCV replicon total RNA. This was established by plotting the Cycle Threshold values (Ct) from the Neo probe and primer set versus the log (ng) for each HCV replicon total RNA standard. The amount of HCV RNA for each replicon sample was calculated by taking the sample's Ct value, minus the line intercept, divided by the slope of the line. Similarly, the amount of Cyclophilin mRNA per cell was also quantified using a linear regression curve for a known nanogram (ng) amount of HCV replicon total RNA. Again, this was established by plotting the Cycle Threshold values (Ct) from the Cyclophilin probe and primer set versus the log (ng) for each HCV replicon total RNA standard.
(§4) The real-time RT-PCR reactions were run on ABI PRISM 7900HT or Viia7 Sequence Detection System using the following program: 48° C. for 30 minutes, 95° C. for 10 minutes, 40 cycles of 95° C. for 15 sec, 60° C. for 1 minutes. The 50% effective concentration (EC50) was the drug concentration necessary to achieve an increase in the cycle threshold (CT) of 1 over the projected baseline CT.
(§5) Data was obtained for various compounds of the present invention using the methods described in the Example above, and is presented in the table immediately below. EC50 data for replicons 1A, 1AY93H and 2B were obtained using Replicon Assay A and EC50 data for replicon 1B was obtained using Replicon Assay B.

HCV replicon 2B = assay: Cell-based HCV replicon assay (Replicon Assay A), replicon 2B; conditions: replicon RNA by real time PCR, day 3
Experimental: as §1, §2, §3, §4, §5

HCV replicon 1A Y93H = assay: Cell-based HCV replicon assay (Replicon Assay A), replicon 1AY93H; conditions: read-out: EC50 replicon 1A Y93H; Replicon Assay A; replicon RNA by real time PCR, day 3
Experimental: as §1, §2, §3, §4, §5

[1] = read-out: EC50 replicon 2B, Replicon Assay A

COC(=O)N[C@H](C(=O)N1CCC[C@H]1c1ncc(-c2ccc3c(c2)OC(c2ccc4c(c2)OCCC4)n2c-3cc3cc(-c4cnc([C@@H]5C[C@H]6C[C@H]6N5C(=O)[C@@H](NC(=O)OC)C(C)C)[nH]4)ccc32)[nH]1)C(C)C (single isomer, unassigned) [Compound 49]
EC50 (HCV replicon 1A; Hepatitis C virus, 72 h): 1.6 pM
EC50 (HCV replicon 2B; [1]): 0.817 nM
EC50 (HCV replicon 1A Y93H): 2.44 nM

COC(=O)N[C@H](C(=O)N1CCC[C@H]1c1ncc(-c2cc(F)c3c(c2)OC(c2ccc4c(c2)CCC(C)(C)O4)n2c-3cc3cc(-c4cnc([C@@H]5CCCN5C(=O)[C@@H](NC(=O)OC)C(C)C)[nH]4)ccc32)[nH]1)C(C)C (single isomer, unassigned) [Compound 22]
EC50 (HCV replicon 1A): 2.7 pM
EC50 (HCV replicon 2B; [1]): 0.93 nM
EC50 (HCV replicon 1A Y93H): 0.162 nM

COC(=O)N[C@H](C(=O)N1CCC[C@H]1c1ncc(-c2cc(F)c3c(c2)OC(c2ccc4c(c2)OCC4)n2c-3cc3cc(-c4cnc([C@@H]5C[C@H]6C[C@H]6N5C(=O)[C@@H](NC(=O)OC)C(C)C)[nH]4)ccc32)[nH]1)C(C)C (single isomer, unassigned) [Compound 47]
EC50 (HCV replicon 2B; [1]): 4.32 nM
EC50 (HCV replicon 1A Y93H): 4.52 nM

COC(=O)N[C@H](C(=O)N1CCC[C@H]1c1ncc(-c2cc(F)c3c(c2)OC(c2ccc4c(c2)OC(C)(C)C4)n2c-3cc3cc(-c4cnc([C@@H]5CCCN5C(=O)[C@@H](NC(=O)OC)C(C)C)[nH]4)ccc32)[nH]1)C(C)C (single isomer, unassigned) [Compound 27]
EC50 (HCV replicon 1A; Hepatitis C virus, 72 h): 1.4 pM
EC50 (HCV replicon 2B; [1]): 1.48 nM
EC50 (HCV replicon 1A Y93H): 1.08 nM

COC(=O)NC(C(=O)N1CCC[C@H]1c1ncc(-c2ccc3c(c2)cc2n3C(c3ccc4c(c3)OC(C)CC4)Oc3cc(-c4cnc([C@@H]5CCCN5C(=O)[C@@H](NC(=O)OC)C(C)C)[nH]4)cc(F)c3-2)[nH]1)C1C[C@@H](C)O[C@@H](C)C1 (single isomer, unassigned) [Compound 58]
EC50 (HCV replicon 1A): 2.2 pM
EC50 (HCV replicon 2B; [1]): 0.403 nM
EC50 (HCV replicon 1A Y93H): 1.09 nM

COC(=O)NC(C(=O)N1[C@@H]2C[C@@H]2C[C@H]1c1ncc(-c2ccc3c(c2)cc2n3C(c3ccc4c(c3)CCCO4)Oc3cc(-c4cnc([C@@H]5CCCN5C(=O)[C@@H](NC(=O)OC)C(C)C)[nH]4)cc(F)c3-2)[nH]1)C1C[C@@H](C)O[C@@H](C)C1 (single isomer, unassigned) [Compound 66]
EC50 (HCV replicon 1A): 3.4 pM
EC50 (HCV replicon 2B; [1]): 2.35 nM
EC50 (HCV replicon 1A Y93H): 0.172 nM

COC(=O)N[C@H](C(=O)N1CCC[C@H]1c1ncc(-c2cc(F)c3c(c2)OC(c2ccc4c(c2)OCCC4)n2c-3c(F)c3cc(-c4cnc([C@@H]5CCCN5C(=O)[C@@H](NC(=O)OC)C5CCOCC5)[nH]4)ccc32)[nH]1)C(C)C (single isomer, unassigned) [Compound 91]
EC50 (HCV replicon 1A; Hepatitis C virus, 72 h): 1.1 pM
EC50 (HCV replicon 2B; [1]): 0.123 nM
EC50 (HCV replicon 1A Y93H): 0.893 nM

COC(=O)N[C@H](C(=O)N1CCC[C@H]1c1ncc(-c2cc(F)c3c(c2)OC(c2ccc4c(c2)OCCC4)n2c-3cc3cc(-c4cnc([C@@H]5C[C@H]6C[C@H]6N5C(=O)[C@@H](c5ccccc5)N5CCC5)[nH]4)ccc32)[nH]1)C1CCOCC1 (single isomer, unassigned) [Compound 71]
EC50 (HCV replicon 2B; Hepatitis C virus, 72 h, read-out: EC50 replicon 2B, Replicon Assay A): 5.13 nM

COC(=O)NC(C(=O)N1CCC[C@H]1c1ncc(-c2ccc3c(c2)cc2n3C(c3ccc4c(c3)CCCO4)Oc3cc(-c4cnc([C@@H]5CCCN5C(=O)[C@@H](NC(=O)OC)C(C)C)[nH]4)cc(F)c3-2)[nH]1)C1C[C@@H](C)O[C@@H](C)C1 (single isomer, unassigned) [Compound 74]
EC50 (HCV replicon 1A): 2.5 pM
EC50 (HCV replicon 2B; [1]): 0.234 nM
EC50 (HCV replicon 1A Y93H): 0.091 nM

COC(=O)N[C@H](C(=O)N1CCC[C@H]1c1ncc(-c2cc(F)c3c(c2)OC(c2ccc4c(c2)OCCC4C)n2c-3cc3cc(-c4cnc([C@@H]5CCCN5C(=O)[C@@H](NC(=O)OC)C(C)C)[nH]4)ccc32)[nH]1)C(C)C (single isomer, unassigned) [Compound 7]
EC50 (HCV replicon 1A; Hepatitis C virus, 72 h): 1.7 pM
EC50 (HCV replicon 2B; [1]): 1.59 nM
EC50 (HCV replicon 1A Y93H): 2.18 nM

COC(=O)N[C@H](C(=O)N1CCC[C@H]1c1ncc(-c2cc(F)c3c(c2)OC(c2ccc4c(c2)CC2CC2(C)O4)n2c-3cc3cc(-c4cnc([C@@H]5CCCN5C(=O)[C@@H](NC(=O)OC)C(C)C)[nH]4)ccc32)[nH]1)C(C)C (single isomer, unassigned) [Compound 25]
EC50 (HCV replicon 1A; Hepatitis C virus, 72 h): 3.7 pM
EC50 (HCV replicon 2B; [1]): 3.83 nM
EC50 (HCV replicon 1A Y93H): 4.67 nM

COC(=O)N[C@H](C(=O)N1CCC[C@H]1c1ncc(-c2cc(F)c3c(c2)OC(c2ccc4c(c2)OCCC4C)n2c-3cc3cc(-c4cnc([C@@H]5CCCN5C(=O)[C@@H](NC(=O)OC)C(C)C)[nH]4)ccc32)[nH]1)C(C)C (single isomer, unassigned) [Compound 9]
EC50 (HCV replicon 1A): 2.6 pM
EC50 (HCV replicon 2B; [1]): 0.772 nM
EC50 (HCV replicon 1A Y93H): 0.949 nM

COC(=O)NC(C(=O)N1CCC[C@H]1c1ncc(-c2ccc3c(c2)cc2n3C(c3ccc4c(c3)OCCC4)Oc3cc(-c4cnc([C@@H]5CCCN5C(=O)[C@@H](NC(=O)OC)C(C)C)[nH]4)cc(F)c3-2)[nH]1)C(C)(C)F (single isomer, unassigned) [Compound 41]
EC50 (HCV replicon 2B; [1]): 4.13 nM

COC(=O)N[C@H](C(=O)N1CCC[C@H]1c1ncc(-c2cc(F)c3c(c2)OC(c2ccc4c(c2)OC(C)(C)CC4)n2c-3cc3cc(-c4cnc([C@@H]5CCCN5C(=O)[C@@H](NC(=O)OC)C(C)C)[nH]4)ccc32)[nH]1)C(C)C (single isomer, unassigned) [Compound 17]
EC50 (HCV replicon 2B; [1]): 5.21 nM
EC50 (HCV replicon 1A Y93H): 11.8 nM

COC(=O)N[C@H](C(=O)N1CCC[C@H]1c1ncc(-c2cc(F)c3c(c2)OC(c2ccc4c(c2)OCCC42CC2)n2c-3cc3cc(-c4cnc([C@@H]5CCCN5C(=O)[C@@H](NC(=O)OC)C(C)C)[nH]4)ccc32)[nH]1)C(C)C (single isomer, unassigned) [Compound 15]
EC50 (HCV replicon 1A; Hepatitis C virus, 72 h): 1.2 pM
EC50 (HCV replicon 2B; [1]): 1.31 nM
EC50 (HCV replicon 1A Y93H): 2.15 nM

COC(=O)NC(C(=O)N1CCC[C@H]1c1ncc(-c2ccc3c(c2)cc2n3C(c3ccc4c(c3)CCC(C)O4)Oc3cc(-c4cnc([C@@H]5CCCN5C(=O)[C@@H](NC(=O)OC)C(C)C)[nH]4)cc(F)c3-2)[nH]1)C1C[C@@H](C)O[C@@H](C)C1 (single isomer, unassigned) [Compound 56]
EC50 (HCV replicon 1A): 2.4 pM
EC50 (HCV replicon 2B; [1]): 0.288 nM
EC50 (HCV replicon 1A Y93H): 0.114 nM

COC(=O)N[C@H](C(=O)N1CCC[C@H]1c1ncc(-c2cc(F)c3c(c2)OC(c2ccc4c(c2)OC(C)(C)CC4)n2c-3cc3cc(-c4cnc([C@@H]5CCCN5C(=O)[C@@H](NC(=O)OC)C(C)C)[nH]4)ccc32)[nH]1)C(C)C (single isomer, unassigned) [Compound 18]
EC50 (HCV replicon 1A; Hepatitis C virus, 72 h): 2.2 pM
EC50 (HCV replicon 2B; [1]): 0.252 nM
EC50 (HCV replicon 1A Y93H): 0.052 nM

COC(=O)N[C@H](C(=O)N1CCC[C@H]1c1ncc(-c2cc(F)c3c(c2)OC(c2ccc4c(c2)OCCC4)n2c-3cc3cc(-c4cnc([C@@H]5C[C@@H](F)CN5C(=O)[C@@H](c5ccccc5)N5CCC5)[nH]4)ccc32)[nH]1)C(C)C (single isomer, unassigned) [Compound 37]
EC50 (HCV replicon 1A): 187 pM
EC50 (HCV replicon 1A Y93H): 15.2 nM

COC(=O)N[C@H](C(=O)N1CCC[C@H]1c1ncc(-c2cc(F)c3c(c2)OC(c2ccc4c(c2)OCCC4)n2c-3cc3cc(-c4cnc([C@@H]5C[C@H]6C[C@H]6N5C(=O)[C@@H](c5ccccc5)N5CCC5)[nH]4)ccc32)[nH]1)C1CCOCC1 (single isomer, unassigned) [Compound 72]
EC50 (HCV replicon 2B; [1]): 3.3 nM

COC(=O)NC(C(=O)N1CCC[C@H]1c1ncc(-c2ccc3c(c2)cc2n3C(c3ccc4c(c3)OCCC4)Oc3cc(-c4cnc([C@@H]5CCCN5C(=O)[C@@H](NC(=O)OC)C(C)C)[nH]4)cc(F)c3-2)[nH]1)C(C)(C)F (single isomer, unassigned) [Compound 44]
EC50 (HCV replicon 2B; [1]): 4.91 nM

CCN(CC)[C@@H](C(=O)N1[C@@H]2C[C@@H]2C[C@H]1c1ncc(-c2ccc3c(c2)cc2n3C(c3ccc4c(c3)OCCC4)Oc3cc(-c4cnc([C@@H]5CCCN5C(=O)[C@@H](NC(=O)OC)C5CCOCC5)[nH]4)cc(F)c3-2)[nH]1)c1ccccc1 (single isomer, unassigned) [Compound 53]
EC50 (HCV replicon 2B; [1]): 0.379 nM

COC(=O)N[C@H](C(=O)N1CCC[C@H]1c1ncc(-c2cc(F)c3c(c2)OC(c2ccc4c(c2)OCCC4)n2c-3cc3cc(-c4cnc([C@@H]5C[C@@H](F)CN5C(=O)[C@@H](c5ccccc5)N5CCC5)[nH]4)ccc32)[nH]1)C(C)C (single isomer, unassigned) [Compound 38]
EC50 (HCV replicon 1A): 5.2 pM
EC50 (HCV replicon 1A Y93H): 6.65 nM
